How the values were obtained:
Type in all cases: cell-based, human
GBM12, GBM6, and GBM22 = experiment: Bromodeoxyuridine cell proliferation assay; conditions: 48 hours
Method: Cell proliferation was assessed using the bromodeoxyuridine (BrdU) cell proliferation enzyme-linked immunosorbent assay kit (Abcam, Cambridge, United Kingdom) according to the manufacturer's instructions.

EGR1 = EGR1 levels (qPCR, Western blot) and EGR1 promoter luciferase assay
Method: Whole protein extracts from cells or tumor tissues were analyzed by western blot as previously described (Altieri et al. (2015) Surg. Technol. Int 27: 297-302). Mayo PDX cells were serum starved overnight. Following treatment for specific time, cells were harvested and lysed. The human glioblastoma tissues were ground in liquid nitrogen and then were lysed. EGFR (06-847) antibody was from Millipore. DOCK7 was from Proteintech (Rosemont, Ill.). pEGFR (2236), STAT3 (12640), pSTAT3 (9145), cdc42(4376), and RhoA (4695) antibodies were from Cell Signaling Technology (Danvers, Mass.). TGFα antibody was from R&D system. BIN3 (sc-514396) and (3-Actin (sc-47778) were from Santa Cruz Biotechnology (Dallas, Tex.).
Total RNA from cells was extracted by TRIzol Reagent (Ambion). First-strand cDNA and PCR was performed as described previously (Altieri et al. (2015) Surg. Technol. Int. 27: 297-302). The expression of each gene was normalized to GAPDH as a reference. The following primers were used. BIN3, 5′-[…]-3′ (SEQ ID NO:5) and 5′-[…]-3′ (SEQ ID NO:6); GAPDH, 5′-[…]-3′ (SEQ ID NO:7) and 5′-TGATG-[…]-3′ (SEQ ID NO:8).
Cells were plated in 48 well dishes to 70%-80% confluence followed by transfection with EGR1 promoter plasmid or empty plasmid using lipofectamine 2000. […] Firefly luciferase activity was measured in a luminometer and normalized on the basis of Renilla luciferase activity.

GBM12 and GBM22 cells = experiment: Single cell migration assay on nanoplates
Source text: For time-lapse analysis of individual cell movement, nano-ridge constructed of transparent poly(urethane acrylate) (PUA), and fabricated using UV-assisted capillary lithography as described by Kim et al. were used (Kim, D et al. (2009) Mechanosensitivity of fibroblast cell shape and movement to anisotropic substratum topography gradients, Biomaterials 30: 5433-5444; Kim, et al. (2009) Guided Cell Migration on Microtextured Substrates with Variable Local Density and Anisotropy, Adv Funct Mater 19: 1579-1586; Garzon-Muvdi, et al. (2012) Regulation of brain tumor dispersal by NKCC1 through a novel role in focal adhesion regulation, PLoS Biol 10: e1001320). The 24 well NanoSurface plate was purchased from Curi Bio (Seattle, Wash.). Prior to cell seeding, nanoridges surfaces were coated with laminin (3 μg/cm^2, Sigma-Aldrich). Cells were plated at low density (1×10^4 cells/ml) and incubated at 37° C. overnight. The following day, cells were washed with PBS and cultured in DMEM supplemented with 1% FBS and were ready for time-lapse imaging. To measure cell proliferation, 6 hours after plating Histone2B-GFP (C10594, ThermoFisher) was added for nuclear staining overnight. The next day cells were incubated with a mixture of BioTracker® NTP-Transporter Molecule (SCT064, Sigma Aldrich) and Cy3-dUTP (50-190-5459, ThermoFisher) for 10 minutes and then replaced with 1% FBS media containing HB2B2-GFP. For time-lapse imaging, the plate was mounted onto the stage of Andor spinning disk confocal microscope equipped with temperature and CO2 controlling environmental chamber. […] Both fluorescent and bright-field images were taken every 30 minutes for 24 hours using a 10× objective. ImageJ manual track Plugin was used to track the movement of cells frame by frame.
Analysis of individual cellular movement was performed as described elsewhere herein. EGF (50 ng/ml) or vehicle was added 6 hours after the start of time-lapse imaging (n=63 cells). Vehicle was used as a negative control (n=67 cells). Single cell migration speed was calculated using Manual tracking Plugin in ImageJ. […] Cell migration velocity was calculated over a period of 6 hours. […] Analysis of individual cell proliferation was performed as described elsewhere herein. EGF (50 ng/ml) was added 6 hours after the start of time-lapse imaging (n=56). Vehicle was used as a negative control (n=64). Representative static time-lapse Cy3 and H2B-GFP staining images of the same cell before and after addition of EGF are shown in FIG. 25E. […] Each point represents the percentage of Ki positive cells in total 100 cells. […] Cell migration velocity was calculated over a period of 6 hours (n=81). Vehicle was used as a negative control (n=89). […] Scale bar=[…]. Data are represented as media ±5-95% interquartile range (FIG. 25B and FIG. 25K) or mean±SEM (FIG. 25D and FIG. 25M). ***P<0.001, […], n.s. not significant, Mann-Whitney test was used for pair comparison. Two-way ANOVA test was used to analyze Cy3 intensity data in FIG. 25D and FIG. 25M. The results are representative of two independently repeated experiments.
Single-cell migration analysis was performed as described for FIG. 25A above (Vehicle group, n=57, EGF group, n=74). […] Cell migration velocity was calculated over a period of 6 hours. Vehicle was used as a negative control (n=57). […] Analysis of individual cell proliferation was performed as described elsewhere herein. […] Cell migration velocity was calculated over a period of 6 hours. […]

RhoA = RhoA pull down assay (RhoA-GTP); conditions: 24 hours, GBM12 and GBM6
Method: (§1) The amount of GTP-bound RhoA and Cdc42 were measured using RhoA and Cdc42 pull down assay kit (Cell Signaling) according to the protocol provided by the manufacturer. Briefly, cell lysates were incubated with either glutathione S-transferase (GST)-Rhotekin-RBD or GST-PAK-PBD beads 4° C. for 1 hour to pull down GTP-bound RhoA or Cdc42. Beads were washed four times in washing buffer and re-suspended in lysis buffer. RhoA-GTP and Cdc42-GTP were detected by Western blot using RhoA and Cdc42 antibodies.

CDC42 = experiment: Cdc42 pull down assay (CDC42-GTP); conditions: 24 hours, GBM12 and GBM6
Method: as §1

Compound: C[C@@H]1CCN(C(=O)CC#N)C[C@@H]1N(C)c1ncnc2[nH]ccc12 [tofacitinib]
- proliferation (BrdU incorporation) (GBM12, GBM6, and GBM22; tofacitinib 1 μM): induced proliferation
- EGR1 levels and activity (EGR1; tofacitinib, Western blot 4 hours, luciferase 2 and 24 hours): induces EGR1 levels and activity
- single cell migration (GBM12 and GBM22 cells; tofacitinib 1 μM, GBM12): decreased invasion
- single cell proliferation (Cy3) (GBM12 and GBM22 cells; tofacitinib 1 μM, GBM12): increased proliferation
- single cell migration and proliferation (GBM12 and GBM22 cells; tofacitinib 1 μM, second PDX line (GBM22)): confirmed

Compound: EGF: Recombinant human EGF (AF-100) from Peprotech; EGFR ligand
- proliferation (BrdU incorporation) (GBM12, GBM6, and GBM22; EGF 50 ng/ml): induces proliferation
- EGR1 mRNA, protein and transcriptional activity (EGR1; EGF 50 ng/ml, GBM12 and GBM6): upregulation of EGR1 was confirmed
- RhoA activity (RhoA; EGF 50 ng/ml): decreases the activity
- CDC42 activity (CDC42; EGF 50 ng/ml): decreases the activity
- single cell migration (GBM12 and GBM22 cells; EGF 50 ng/ml, GBM12): significant slowing of migration
- single cell proliferation (Cy3 linked marker, Ki-67) (GBM12 and GBM22 cells; EGF 50 ng/ml, GBM12): induces proliferation

Compound: HGF: the ligand for Met
- RhoA activity (RhoA; HGF): increase in RhoA activity
- CDC42 activity (CDC42; HGF 20 ng/ml): increase of CDC42 activity was not detected
